Laboratory results from the Kinase Knowledgebase extract (Sharma et al. 2016).
pIC50: −log10 of the molar value.

target: CDK2 (UniProt P24941); assay: Enzyme Assay

pIC50, > 6.30:
CCCCNC(=O)c1cc2[nH]nc(NC(=O)C3CC3)c2s1
Cc1c(C(=O)NCc2ccc(F)cc2)sc2c(NC(=O)c3cccs3)n[nH]c12
O=C(Nc1n[nH]c2cc(C(=O)O)sc12)c1ccc(N2CCOCC2)cc1
CN1CCN(C(=O)c2cc3[nH]nc(NC(=O)c4ccc(F)cc4)c3o2)CC1
CCCCNC(=O)c1cc2[nH]nc(NC(=O)c3cccs3)c2s1
O=C(Nc1n[nH]c2cc(C(=O)O)oc12)c1ccc(N2CCOCC2)cc1
CN1CCN(c2ccc(C(=O)Nc3n[nH]c4cc(C(=O)NCc5ccco5)sc34)cc2)CC1
CCC(NC(=O)c1cc2[nH]nc(NC(=O)c3ccc(N4CCOCC4)cc3)c2o1)c1ccccc1 (configuration not stated)
CCC(NC(=O)c1cc2[nH]nc(NC(=O)c3ccc(N4CCN(C)CC4)cc3)c2o1)c1ccccc1 (configuration not stated)
CN1CCN(C(=O)c2cc3[nH]nc(NC(=O)c4ccc(F)cc4)c3s2)CC1
C=CCNC(=O)c1cc2[nH]nc(NC(=O)NCc3ccccc3)c2s1
CN1CCN(c2ccc(C(=O)Nc3n[nH]c4cc(C(=O)NCc5ccoc5)sc34)cc2)CC1
CCCCNC(=O)c1cc2[nH]nc(NC(=O)CCCC)c2s1
CCNC(=O)c1cc2[nH]nc(NC(=O)c3ccc(N4CCN(C)CC4)cc3)c2s1
O=C(Nc1n[nH]c2cc(C(=O)NCc3ccccc3)sc12)c1cc(F)cc(F)c1
Cc1c(C(=O)NCc2ccc(F)cc2)sc2c(NC(=O)c3ccc(F)cc3)n[nH]c12
C[C@@H](NC(=O)c1cc2c(NC(=O)c3ccc(N4CCN(C)CC4)cc3)n[nH]c2s1)c1ccccc1
